Measurements taken from patent publication US20220306585A1, “PYRAZOLE DERIVATIVES FOR CONTROLLING ARTHROPODS” (Bayer Animal Health GmbH, priority 2019, published 2022).
Values after ≈ are worked out from the molar mass of the structure shown.

Assays:
[1] = Measurement of solubility in buffer at pH 6.5; type: physicochemical; details: aqueous buffer, kinetic from dmso stock; PBS buffer pH 6.5, shaken 24 h at rt, LC-MSMS; read-out: Solubility of example compounds at pH 6.5
Method: Measurement of Solubility in Buffer at pH 6.5 2-4 mg of the test compound are dissolved in DMSO to reach a concentration of 50 g/L (solution A). To 10 μL of this solution 960 μL PBS buffer pH 6.5 are added (final concentration: […]); the mixture is shaken for 24 h at rt in a 96 well plate. An aliquot is centrifuged at 42000 rpm für 30 min. The supernatant is diluted with acetonitrile/water (8:2) 1:10 and 1:1000 resp. This diluted samples are analyzed by LC-MSMS. Calibration: 10 μL of solution A are diluted with 823 μL DMSO (final concentration: 600 μg/mL), which is further diluted with acetonitrile/water 8:2 by a factor of 100 (provides solution B). The calibration curve is obtained from solution B by further diluting with acetonitrile/water 8:2 with target concentrations of 1.2-12-60-600 ng/mL and injecting these four solutions for MS measurement. PBS-Puffer: 6.18 g sodium chloride and 3.96 g sodium dihydrogen phosphate are dissolved in 1 L aqua dist., the pH is adjusted to 6.5 with IN sodium hydroxide.

[2] = Measurement of stability of prodrugs in buffer at pH 7.4; type: physicochemical; details: PBS buffer pH 7.4, 37° C., HPLC peak area, read-out: % Recovery after 24 h (stability at pH 7.4)
Method: Preparation of the PBS buffer solution pH 7.4: 90 g sodium chloride, 13.61 g potassium dihydrogen phosphate, 83.35 g 1M aqueous sodium hydroxide were dissolved in water. More water was added up to a total volume of 1 L. This solution was diluted 1:10 with water. Eventually, pH was adjusted to pH 7.4 by the addition of phosphoric acid.
Measurement of Stability of Prodrugs in Buffer at pH 7.4
0.15 mg of the test compound were dissolved in 0.1 mL dimethylsulfoxide and 0.4 mL acetonitrile. For complete dissolution, the HPLC vial with the sample solution was shaken and treated with ultrasound. Then, 1.0 mL of PBS buffer solution pH 7.4 was added and the sample was vortexed. The sample solution was analysed by HPLC (method 8) to determine the amount of the test compound at a particular time over a period of 24 h at 37° C. The peak areas, given as percentage of total area, are used for quantification. In addition, the reaction mixture was analysed by method 9 (HPLC-MS) at the final timepoint.

[3] = Degradation of prodrugs and release of parent drug in rat plasma; type: in vitro ADME; details: male, Hannover-Janvier RjHan, rat plasma (Li-heparin), 37° C., percent area of prodrug at t0
Method: Measurement of Release of Parent Drug in Rat Plasma 1 mg of the test compound was dissolved in 0.5 mL acetonitrile/dimethylsulfoxide 9:1. For complete dissolution the HPLC vial was shaken and treated with ultrasound. 20 μL of this solution were added to 1 mL of rat plasma (Li-heparin plasma, Hannover-Janvier rat, RjHan male) with vortexing at a temperature of 37° C. Aliquots (100 μL each) were taken at 0.17, 0.5, 1, 1.5, 2 and 4 hours. Each aliquot was transferred to a vial containing 300 μL of acetonitrile/citric acid buffer pH 3 8:2. These solutions were centrifuged at 5000 rpm for 10 minutes. The supernatant was analysed by HPLC (Method 8) to determine the amount of the test compound. In addition, the reaction mixture was analysed by method 9 (HPLC-MS) at the final timepoint. Both decrease of the prodrug concentration and increase of parent drug concentration were monitored. All data is given as percent area of the prodrug at to.

[4] = tested on: Ctenocephalides felis adult; assay: Antiparasitic activity after administration to rats: fleas; type: in vivo; details: for In-vivo Efficacy SD2: study day 2; for In-vivo Efficacy SD9: study day 9; for In-vivo Efficacy SD16: study day 16; for In-vivo Efficacy SD23: study day 23; for In-vivo Efficacy SD30: study day 30; for In-vivo Efficacy SD37: study day 37; for flea efficacy on rats compared with parent drug: sc, versus parent drug also injected subcutaneously
Method: (§1) Measurement of the Antiparasitic Activity after Administration of a Prodrug to Rats Compounds were dissolved in the appropriate volume of glycerol formal (p.a.) just before application to the animals (dose volume was adjusted to 0.03 mL/kg bodyweight). 5 rats per group were either injected intraperitoneally or subcutaneously. Rats were infested with 30 Dermacentor variabilis nymphs on study days −2, 7, 14, 21, 28, 35 and 30 adult Ctenocephalides fleas on study days −1, 8, 15, 22, 29, 36. Parasite counts were performed on study days 2, 9, 16, 23, 30, 37. Percent efficacy was calculated as arithmetic mean parasite numbers as life attached tick numbers and live flea numbers of the respective study group in comparison to parasite counts on a placebo-treated control group. Infestation of groups with less than 75% efficacy on two consecutive counting occasions will terminated for the respective parasite.

[5] = tested on: Dermacentor variabilis nymph; assay: Antiparasitic activity after administration to rats: ticks; type: in vivo; details: for In-vivo Efficacy SD2: study day 2; for In-vivo Efficacy SD9: study day 9; for In-vivo Efficacy SD16: study day 16; for In-vivo Efficacy SD23: study day 23; for In-vivo Efficacy SD30: study day 30; for In-vivo Efficacy SD37: study day 37; for tick efficacy on rats compared with parent drug: sc, versus parent drug also injected subcutaneously
Method: as §1

[6] = Evaluation of pharmacokinetics in vivo (rat); details: concentration of Parent Drug A after admin. of the named substance
Method: Evaluation of Pharmacokinetics (In Vivo) To evaluate the pharmacokinetics of test substances in vivo, these test substances are dissolved in appropriate formulation vehicles (ethanol, dimethyl sulfoxide, PEG400, glycerol formal etc.), or mixtures thereof. The test substances are then administered to rats or dogs intravenously, orally or subcutaneously. The intravenous application is performed as bolus. Administered doses range usually between 0.1 to 5 mg/kg, however, doses for subcutaneous and oral administration can exceed this range up to doses of 30 mg/kg. Blood samples are retrieved via a catheter, exsanguination or venous puncture in vials containing appropriate anticoagulants, such as lithium heparinate or potassium EDTA. Plasma is generated from the blood via centrifugation. Blood samples are taken over an appropriate time interval, usually lasting up to 144 h after administration. If necessary, samples from later time points can also be taken. If possible, time points are chosen so that the initial absorption phase, the maximum plasma concentration (Cmax), and exposure within a certain time interval (AUC(0-t))aer described. Furthermore, it is possible to also retrieve organ-, tissue- and urine samples. The quantitative measurement of the test substances in the samples is performed using calibration curves in the respective matrices. The protein content of the samples is precipitated using acetonitrile or methanol. Thereafter, the samples are separated using HPLC in combination with reversed phase chromatography columns. The HPLC system is coupled to a triple quadrupole mass spectrometer via an electrospray interface. The evaluation of the plasma concentration/time profiles are afterwards evaluated using a validated pharmacokinetics evaluation program. […] Relative bioavailability (Frel) was used to describe the exposure of parent drug after prodrug administration compared to the exposure of parent drug after direct administration of compound A which was normalised to 100%.

[7] = 12.22 mg/kg sc, Ctenocephalides felis adult
[8] = 12.22 mg/kg sc, Dermacentor variabilis nymph
[9] = 12.00 mg/kg sc, Ctenocephalides felis adult
[10] = 12.00 mg/kg sc, Dermacentor variabilis nymph

Structure (SMILES) | solubility at 24 h [1] [µg/mL] | recovery at 24 h, 0.1 mg/mL [2] [%] | recovery at 0.17 h, 39 µg/mL [3] [%] | recovery at 0.5 h, 39 µg/mL [3] [%] | recovery at 1 h, 39 µg/mL [3] [%] | recovery at 1.5 h, 39 µg/mL [3] [%] | recovery at 2 h, 39 µg/mL [3] [%] | recovery at 4 h, 39 µg/mL [3] [%] | flea efficacy on rats compared with parent drug [4] | tick efficacy on rats compared with parent drug [5] | also measured
N#CC1(N(COC(=O)CCCC(=O)O)C(=O)c2cc(-c3cnn(-c4c(Cl)cc(C(F)(C(F)(F)F)C(F)(F)F)cc4OC(F)(F)F)c3)ccc2Cl)CC1 [Example 9, 5-{[(2-Chloro-5-{1-[2-chloro-4-(1,1,1,2,3,3,3-heptafluoropropan-2-yl)-6-(trifluoromethoxy)phenyl]-1H-pyrazol-4-yl}benzoyl)(1-cyanocyclopropyl)amino]methoxy}-5-oxopentanoic acid] | 10 (≈ 12.6 µM) | 100 | 89 | 77 | 66 | 56 | 48 | 29 | – | – | In-vivo Efficacy SD2 [4, 7]: 100%; In-vivo Efficacy SD9 [4, 7]: 97%; In-vivo Efficacy SD16 [4, 7]: 96%; In-vivo Efficacy SD23 [4, 7]: 97%; In-vivo Efficacy SD30 [4, 7]: 91%; In-vivo Efficacy SD37 [4, 7]: 46%; In-vivo Efficacy SD2 [5, 8]: 99%; In-vivo Efficacy SD9 [5, 8]: 100%; In-vivo Efficacy SD16 [5, 8]: 96%; In-vivo Efficacy SD23 [5, 8]: 98%; In-vivo Efficacy SD30 [5, 8]: 85%; In-vivo Efficacy SD37 [5, 8]: 49%
Cn1nc(C(F)(F)C(F)(F)F)c(C(F)(F)F)c1-n1cc(-c2ccc(Cl)c(C(=O)N(COC(=O)CCCC(=O)O)C3(C#N)CC3)c2)cn1 [Example 4, 5-{[{2-Chloro-5-[2′-methyl-5′-(pentafluoroethyl)-4′-(trifluoromethyl)-2′H-[1,3′-bipyrazol]-4-yl]benzoyl}(1-cyanocyclopropyl)amino]methoxy}-5-oxopentanoic acid] | 179 (≈ 257 µM) | 100 | 73 | 42 | 18 | 9 | 0 | 0 | superior | superior | –
Cn1nc(C(F)(F)C(F)(F)F)c(C(F)(F)F)c1-n1cc(-c2ccc(Cl)c(C(=O)N(COC(=O)C3CC3C(=O)O)C3(C#N)CC3)c2)cn1 (stereo not shown) [Example 1, 2-({[{2-Chloro-5-[2′-methyl-5′-(pentafluoroethyl)-4′-(trifluoromethyl)-2′H-[1,3′-bipyrazol]-4-yl]benzoyl}(1-cyanocyclopropyl)amino]methoxy}carbonyl)cyclopropane-1-carboxylic acid] | 331 (≈ 476 µM) | 100 | 93 | 88 | 80 | 74 | 66 | 49 | superior | superior | –
N#CC1(N(COC(=O)CCC(=O)O)C(=O)c2cc(-c3cnn(-c4c(Cl)cc(C(F)(C(F)(F)F)C(F)(F)F)cc4OC(F)(F)F)c3)ccc2Cl)CC1 [Example 8, 4-{[(2-Chloro-5-{1-[2-chloro-4-(1,1,1,2,3,3,3-heptafluoropropan-2-yl)-6-(trifluoromethoxy)phenyl]-1H-pyrazol-4-yl}benzoyl)(1-cyanocyclopropyl)amino]methoxy}-4-oxobutanoic acid] | 12 (≈ 15.4 µM) | 95 | 96 | 95 | 93 | 92 | 90 | 86 | – | – | AUC(0-144 h)norm of parent drug A ([6]; iv bolus): 12 kg·h/L; AUC(0-144 h)norm of parent drug A ([6]; sc): 6.7 kg·h/L; In-vivo Efficacy SD2 [4, 9]: 100%; In-vivo Efficacy SD9 [4, 9]: 99%; In-vivo Efficacy SD16 [4, 9]: 100%; In-vivo Efficacy SD23 [4, 9]: 100%; In-vivo Efficacy SD30 [4, 9]: 97%; In-vivo Efficacy SD37 [4, 9]: 88%; In-vivo Efficacy SD42 ([4]; 12.00 mg/kg sc, Ctenocephalides felis adult, study day 42): 78%; In-vivo Efficacy SD2 [5, 10]: 100%; In-vivo Efficacy SD9 [5, 10]: 100%; In-vivo Efficacy SD16 [5, 10]: 99%; In-vivo Efficacy SD23 [5, 10]: 100%; In-vivo Efficacy SD30 [5, 10]: 100%; In-vivo Efficacy SD37 [5, 10]: 100%; In-vivo Efficacy SD42 ([5]; 12.00 mg/kg sc, Dermacentor variabilis nymph, study day 42): 92%
